# Data taken from patent US4582827A, “Pesticidal diphenylaziridines” (priority 1983, dated 1986).
# System: tobacco hornworm (Manduca sexta) larvae
# Test: Tobacco hornworm growth and developmental responses to feeding on diets containing the compounds
# Type: in vivo
# Details: for % Adult Emergence / % Malformed Adults / % Pupation / Days to Max Wt / Max Larval Wt / Mean No. of Eggs / No. of female Adults / feeding time required to attain reduced maximum weight / larval mortality / percent adult emergence / percent pupation / reduction in the maximum weight of hornworm larvae / wrinkled or crumpled wings of moths / mean number of eggs / Total No. of Adults: 5 mM in diet; for mean number of eggs: 4 day old females; for Total No. of Adults: all tests began with 15 larvae; for effects on tobacco hornworm development: summary of Tables I and II
# Protocol: The compounds produced and described in Example 1 were then tested for pesticidal activity against the tobacco hornworm (Manduca sexta). The screening procedure for these tests began with the larval stage and continued through the pupal and adult stages and finally evaluated egg production. The studies thus permitted the evaluation of the effects of the compounds over several subsequent developmental stages in the total life cycle of the insect, giving estimates of acute toxicity (insecticidalor larvicidal activity) as well as prolonged or delayed effects on development (growth regulation) and reproduction (chemosterilization). The latter are of special importance in conjunction with the integrated pest management approach to insect control.
# The test compounds were incorporated into the artificial diet of tobacco hornworm larvae and their subsequent growth and developmental responses were monitored using the following parameters: larval mortality including determination of LD50 values, rate of larval development and weight gain, percent pupation, pupal weight and degree of deformities, percent adult emergence and measures of reproductive capacity such as the number of developed ooctyes, fecundity and fertility. The protocol for the screening tests has been developed over a number of years by Dahlman et al., Comp. Biochem. Physiol. 51A, 33, (1975); Comp. Biochem. Physiol., 52A, 105 (1975); Ent. Exp. et Appl., 22, 123 (1977); Palumbo and D. L. Dahlman, J. Econ. Entomol. 71, 674 (1978); D. L. Dahlman, Ent. Exp. et Appl., 24, 327 (1978).
# Each treatment used 15 newly ecdysed fifth-instar larvae. Death of larvae within a few hours to several days of initial exposure was considered to be acute toxicity. However, the compounds may reduce the maximum size attained by larvae and/or may retard growth so that larvae require additional time to attain their maximum size. Developmental parameters subsequent to the feeding stage also may be affected. […] Mortality may occur in the pupal stage or emerging adults may have wrinkled wings or other deformities. The number of eggs produced by treated females may be reduced and/or unfertile. Although acute toxicity is desirable in the control of any insect, the delayed effects which result in poor survival and reduced reproductive capacity are significant factors in the long-range program of pest management systems.
# Continuous cultures of M. sexta are maintained according to the procedures of Yamamoto, J. Econ. Entomol., 62, p. 1427 (1969). Ingredients of the diet formulation include sugar, casein, wheat germ oil, cholesterol, salt mixture, yeast, vitamins, antioxidants and fungal inhibitors, such as ascorbic acid, sorbic acid, formaldehyde and methyl-p-benzoate. All are incorporated into a liquid agar base which, when poured into holding pans, solidifies to form an adequate substrate upon which the insect larvae feed. Nearly any test material can be uniformly incorporated into such a diet. Thus, exposure to experimental compounds can be evaluated during all or any part of the larval stage. In addition, chronic or long-term effects in subsequent life stages can also be monitored.
# The results from these studies, in which the 1,2-diphenylaziridines of Example 1 were incorporated singly into the diet of M. sexta at a concentration of 5 mM are presented in the following Table I.
SMILES,% Adult Emergence,% Malformed Adults,% Pupation,Days to Max Wt,Max Larval Wt,Mean No. of Eggs,No. of female Adults,feeding time required to attain reduced maximum weight,larval mortality,percent adult emergence,percent pupation,reduction in the maximum weight of hornworm larvae,wrinkled or crumpled wings of moths,mean number of eggs,Total No. of Adults,effects on tobacco hornworm development
Brc1ccc(N2CC2c2ccccc2)cc1 (centres unmarked) [Compound 6],47%,27%,53%,9.2 ± .5 days,4.83 ± .42 g,7 ± 5,5,extended the feeding time,significant larval mortality,significantly lower than controls,a reduction in percent pupation,30-50%,observed in significant numbers of moths,significantly reduced the mean number of eggs,7,"reduction in maximum larval weight, percent pupation, and mean number of eggs, and an increase in malformed adults"
"c1ccc(C2CN2c2ccccc2)cc1 (centres unmarked) [Compound 7, 1,2-diphenylaziridine]",80%,0%,100%,6.7 ± .2 days,9.29 ± .17 g,79 ± 19,10,–,–,–,–,–,–,–,12,had no effect
Clc1cccc(C2CN2c2ccc(Br)cc2)c1 (centres unmarked) [Compound 8],53%,50%,60%,7.8 ± .6 days,4.84 ± .19 g,1 ± 0,4,extended the feeding time,significant larval mortality,significantly lower than controls,a reduction in percent pupation,30-50%,observed in significant numbers of moths,significantly reduced the mean number of eggs,8,"reduction in maximum larval weight, percent pupation, and mean number of eggs, and an increase in malformed adults"
Clc1ccc(C2CN2c2ccc(Br)cc2)cc1 (centres unmarked) [Compound 9],86%,15%,93%,5.0 ± .0 days,6.46 ± .23 g,74 ± 14,7,–,–,–,–,30-50%,–,–,13,–
Clc1cccc(N2CC2c2ccccc2Cl)c1 (centres unmarked) [Compound 12],47%,57%,60%,7.6 ± .8 days,5.96 ± .40 g,8 ± 11,2,extended the feeding time,significant larval mortality,significantly lower than controls,a reduction in percent pupation,30-50%,observed in significant numbers of moths,significantly reduced the mean number of eggs,7,"reduction in maximum larval weight, percent pupation, and mean number of eggs, and an increase in malformed adults"
CCc1ccc(N2CC2c2ccccc2Cl)cc1 (centres unmarked) [Compound 16],80%,20%,87%,5.5 ± .2 days,7.48 ± .31 g,44,4,–,–,–,–,–,–,–,12,–
